Columns and labels:
[1] = tested on: Hsp70 induction in HEK293 cells; assay: Hsp70 induction in HA-TLR9 transfected HEK293 cells; type: cell-based, human; conditions: 24 h
Procedure: Cell fractionation and immunoblotting. Cells were either treated with DMSO (vehicle) or indicated compounds for 24 hr and lysed in RIPA buffer (50 mM Tris-HCl, pH 7.4, 150 mM NaCl, 0.5% sodium deoxycholate and 0.5% NP40) supplemented with cocktail protease inhibitors (Roche) to produce whole cell lysates. Lysates for cytosol and membrane fractions were harvested using ProteoExtract Subcellular Proteome Extraction Kit (Calbiochem) following the manufacturer's instructions. Protein concentrations were determined using BCA kit (Pierce) according to the manufacturer's instructions. The protein lysates ([…]) were electrophoretically resolved by SDS-PAGE, transferred onto nitrocellulose membranes and probed with the indicated primary antibodies against: HER^2 (Zymed, 28004), Hsp70 (Stressgen, SPA-810), Grp94 (Stressgen, SPA-850), Hsp90α (Abcam, Ab2928), Hsp90β (StressMarq, SMC-107B), Grp78 (Cell Signaling, 3183), Raf-1 (Santa Cruz, sc-133), phospho-Raf-1 (Cell Signaling, 9421), MEK1/2 (Cell Signaling, 8727), phospho-MEK1/2 (Cell Signaling, 9154), ERK1/2 (Cell Signaling, 4695), phospho-ERK1/2 (Cell Signaling, 4370), AKT (Cell Signaling, 9272), GM130 (Cell Signaling, 2296), Flotillin 2 (Cell Signaling, 3436), Histone H4 (Cell Signaling, 2592), Histone H1 (Santa Cruz, sc-8030), Caspase 3 (Cell Signaling, 9665), cleaved PARP (Promega, G7341), a-tubulin (Sigma, T5168) and 3-actin (Sigma, A1978). After washing off the excess antibodies, the membranes were incubated with the corresponding horseradish peroxidase (HRP) conjugated secondary antibody. Blots were visualized by autoradiography using the Enhanced Chemiluminescence Detection System (GE Healthcare) according to manufacturer's instructions. […]
TLR^9-trafficking assay (Yang, Y. et al. Heat shock protein gp96 is a master chaperone for toll-like receptors and is important in the innate function of macrophages. Immunity 26, 215-26 (2007)). […] Fluorescence intensity was quantified using MetaMorph Microscopy Automation and Image Analysis Software (Molecular Devices Inc.) and normalized to the cell number.

[2] = tested on: C2C12 cells; assay: Viability of C2C12 cells visualized by light microscopy; type: cell-based, mouse; conditions: 24 h
[3] = tested on: HER2-overexpressing breast cancer cells; assay: Cell cycle, PARP cleavage, apoptosis and Hsp70 induction in HER2-overexpressing breast cancer cells; type: cell-based
[4] = tested on: NCI-N87 cells; assay: Cell viability assessment (CellTiter-Glo); type: cell-based
[5] = tested on: MKN74 cells; assay: Cell viability assessment (CellTiter-Glo); type: cell-based
[6] = tested on: PANC-1 cells; assay: Cell viability assessment (CellTiter-Glo); type: cell-based
[7] = tested on: CFPAC cells; assay: Cell viability assessment (CellTiter-Glo); type: cell-based
[8] = tested on: A673 Ewing sarcoma cells; assay: Apoptosis assessment (Annexin V / 7AAD); type: cell-based
Procedure: (§1) The disclosure provides evidence that Grp94 inhibitors are efficacious in treating cancer with altered expression of the IGF1R and where the receptor is necessary for pathogenesis and tumor progression.
(§2) Cell cycle and apoptosis assessment. Cell cycle and apoptosis were assessed by flow cytometry after single staining with propidium iodide (PI, BD Pharmingen) or double staining with AnnexinV-FITC (BD Pharmingen) and 7AAD (BD Pharmingen), respectively. Specifically, for cell cycle analysis, cells were washed twice with cold PBS and fixed in 70% ethanol overnight at 4° C. Fixed cells were collected at 1800 rpm for 10 min and stained with PBS containing PI and DNase-free RNase A (Sigma-Aldrich) for 1 h at room temperature in the dark. DNA content was measured by BD LSRII flow cytometer and cell further analyzed using program of cell cycle analysis in FloJo (Ashland, OR). The chicken erythrocyte nuclei singlets (CEN, Biosure) were used as the reference. For apoptosis assessment, live cells were collected, washed twice with cold PBS, resuspended in Binding Buffer and stained with AnnexinV-FITC and 7AAD for 15 min at room temperature in the dark. Signals from FL1 and FL3 channels were collected by MACSQuant analyzer and further analyzed using FloJo. Early apoptosis was defined as AnnexinV+/7AAD−, and late apoptosis was observed as AnnexinV+/7AAD+.

[9] = tested on: TC71 Ewing sarcoma cells; assay: Apoptosis assessment (Annexin V / 7AAD); type: cell-based
Procedure: as §1, §2

[10] = tested on: IGF1R and TGFbeta expressing ovarian cancer cell lines; assay: Apoptosis in ovarian cancer cell lines; type: cell-based
Procedure: as §2

[11] = tested on: LRP6 in the normal GI; assay: PD analysis of normal GI tissues (Western blot); type: in vivo, mouse

Question: With `CC(C)NCCCn1c(Sc2cc(Cl)cc(Cl)c2)nc2c(N)ncnc21` [PU-WS13] as the molecule, how does the Hsp70 induction [1] read?
Answer: fails to induce Hsp70

Question: And the “toxicity to C2C12 cells” value [2]?
Answer: not toxic

Question: And the “accumulation of cells in sub-G1 phase, time first observed post-treatment” value [3]?
Answer: 1 to 2 h

Question: And the “cells exhibiting markers of early- and late-stage apoptosis” value [3]?
Answer: substantial increase

Question: What about the “cleavage of PARP” value [3] of the same molecule?
Answer: cleavage of PARP

Question: What about the “feed-back heat shock response (Hsp70 induction)” value [3] of the same molecule?
Answer: little to no Hsp70 induction

Question: What about the “sensitivity to Grp94 inhibition” value [4] of the same molecule?
Answer: highly susceptible

Question: What about the “sensitivity to Grp94 inhibition” value [5] of the same molecule?
Answer: not sensitive

Question: And the “effect on cell growth” value [6]?
Answer: effectively inhibited the growth

Question: What about the “effect on cell growth” value [7] of the same molecule?
Answer: modest effect

Question: What about the induction of apoptosis [8] of the same molecule?
Answer: capable of inducing apoptosis

Question: What about the induction of apoptosis [9] of the same molecule?
Answer: capable of inducing apoptosis

Question: What about the induction of apoptosis [10] of the same molecule?
Answer: induces apoptosis

Question: And the “LRP6 levels in normal GI” value ([11]; 75 mg/kg)?
Answer: could not detect a significant decrease in LRP6

Question: And the “LRP6 levels in normal GI” value ([11]; 150 mg/kg)?
Answer: no acute tox or change in LRP6 levels

— patent publication US12600725B2 (Memorial Sloan-Kettering Cancer Center, priority 2013, dated 2026)
